Measured values published in US20080070939A1, “LOCAL […] COMPOSITIONS CONTAINING DEXTROROTATORY MORPHINAN DERIVATIVES OR PHARMACEUTICALLY ACCEPTABLE SALTS THEREOF” (CHI MEI FOUNDATION HOSPITAL, priority 2006, published 2008).
Where “and” joins values, the source holds several entries; their conditions need not be identical. Equal entries are not always repeated. Structures can show the parent of a compound that is named as a salt. Where two headings read alike, the source gives them in different places.

Assays:
Format in all cases: in vivo
sciatic nerve = assay: Sciatic nerve blockade after injection at the sciatic nerve notch in rats; parameters: AUC of time-% PE curve, sciatic nerve blockade of motor function / AUC of time-% PE curve, sciatic nerve blockade of proprioception / AUC of time-% PE curve, sciatic nerve blockade of nociceptive reaction: unit not given beside the values; settings: for ED50: Rattus norvegicus
Protocol: (§1) Male Sprague-Dawley rats (weighing about 300 to 350 g); for each dose of each drug, n=6.
In brief, the rats were slightly anesthetized by inhalation of a low concentration of sevoflurane. Then, 200 μL of tested drugs were injected at the sciatic nerve notch at the left hind limb of the rat using a 27-gauge needle connected to a tuberculin syringe (Becton Dickinson, USA, model BND309623-BX). Thereafter, development of sciatic nerve blockade was observed from the paralysis of the left hind limb of the rat. The right hind limb served as a control during the subsequent functional assay
For proprioception, the front half of the rat body and the right hind limb were off the ground at the same time so that the rat was standing on the left hind limb during the measurement.
The differences resided in that: The sciatic nerve notch injections of ED25, ED50 and ED75 were conducted based on the method described in the preceding section “A. Drug injection” of this example. Evaluations of motor function, proprioception and nociceptive reaction were conducted based on the method described in section “B. Neurobehavioral evaluations” of this example.
The differences resided in that: Before the statistical analysis, Shapiro-Wilk test was used to evaluate whether the data were, theoretically, normally distributed.

Male Sprague-Dawley rats [1] = assay: Spinal anesthetic effect (spinal blockade) after intrathecal injection in rats; parameters: AUC of time-% PE curve, spinal blockade of motor function / AUC of time-% PE curve, spinal blockade of proprioception / AUC of time-% PE curve, spinal blockade of nociceptive reaction: unit not given beside the values; settings: for AUC of time-% PE curve, spinal blockade of motor function / AUC of time-% PE curve, spinal blockade of nociceptive reaction / AUC of time-% PE curve, spinal blockade of proprioception: 2 ED50 when administered independently, ED50 of each drug when co-administered, mean ± SEM; for Motor function ED50 (95% CI): spinal blockade of motor function; for Motor function ED50 (95% CI) / Nociceptive reaction ED50 (95% CI) / Proprioception ED50 (95% CI): intrathecal injection; for Nociceptive reaction ED50 (95% CI): spinal blockade of nociceptive reaction; for Proprioception ED50 (95% CI): spinal blockade of proprioception; for Mean value ED25 / Mean value ED50 / Mean value ED75: spinal blockade, mean of motor function, proprioception and nociceptive reaction
Protocol: as §1
In brief, for preparation, the hairs on the back of each rat were shaved, and the shaved back was sterilized with iodine.
After three minutes, 50 μL of each of the tested drugs was injected via a 27-gauge needle attached to a 100-μL syringe (Hamilton, Reno, Nev.) into the intrathecal space between the fourth and fifth lumbar vertebrae. The development of spinal blockade was observed from the paralysis of the hind limbs of the rats.
The magnitude of nerve block (including blocking of motor function, proprioception, and nociceptive reaction) was expressed as the percentage of possible effect (hereinafter referred to as % PE), and the maximal value of % PE was expressed as the percentage of maximal possible effect (hereinafter referred to as % MPE).
Motor function was evaluated by measuring the extensor postural thrust of the right hind limbs of the rats using a digital platform balance (Mettler Toledo, Switzerland, model PB1502-S). To test the extensor postural thrust, the rat was held upright with the hind limb extended, so that the body weight of the rat was supported by the distal metatarsus and toes. The extensor postural thrust could be measured as the force of the right hind limb of the rat thrusting the platform balance.
A reduction in the force, resulting in extensor muscle tone, was considered as a motor deficit. A force less than 20 g (i.e., a weight of the “flaccid limb”) was considered absence of an extensor postural thrust or 100% motor block or 100% MPE.
Proprioception was evaluated based on resting posture and postural reactions (including tactile placing and hopping). First, the front half of the rat body and one of the hind limbs were lifted off the ground at the same time so that the rat was standing on one hind limb. Then, the rat was moved laterally, which normally evoked a prompt hopping response of the weight-bearing hind limb of the rat in the direction of movement so as to avoid falling. A predominantly proprioceptive block caused a delayed hopping followed by greater lateral hops. […] Functional deficits were classified into four grades: 3 (normal or 0% MPE), 2 (slightly impaired), 1 (severely impaired), and 0 (completely impaired or 100% MPE).
Nociceptive reaction was evaluated by the withdrawal reflex or vocalization elicited by the pinch of a skin fold over the back at 1 cm near the proximal part of the tail, the lateral metatarsus of the bilateral hind limbs, and the dorsal part of the mid-tail. At each testing time, only one pinch was given to each of the abovementioned four testing sites, and the time interval between stimulations at different sites was around 2 seconds. Nociceptive reactions were classified into five grades: 4 (normal or 0% MPE), 3 (25% MPE), 2 (50% MPE), 1 (75% MPE), and 0 (absent or 100% MPE).
The potency of each drug on spinal blockades was compared using ED50.
Duration was defined as the interval from injection of the tested drugs to complete recovery. The ED25, ED50 and ED75 obtained according to the SAS NLIN analysis in the preceding section “C. Potency evaluation” were used in this experiment.
Regarding the method of evaluating the effect of co-administration, dextromethorphan hydrobromide monohydrate was used as an example.
After the tests, the time of measurement of each drug and its corresponding % PE were plotted to obtain the time-% PE curves of each drug. The area under the curve (AUC) of time-% PE was calculated using the trapezoidal rule, and was used to evaluate the effect of the co-administration of the drugs.
Statistical software, SPSS for Windows® (version 10.0.7) was used. Data were represented as mean±SEM.

Male Sprague-Dawley rats [2] = assay: Infiltrative cutaneous anesthesia (inhibition of cutaneous trunci muscle reflex, CTMR) after subcutaneous injection in rats
Protocol: Male Sprague-Dawley rats (weighing about 200 to 250 g); for each dose of each drug, n=8.
In brief, hairs on the dorsal surface (about 10×10 cm^2) of the thoracolumbar region of the rat were shaved, and the shaved surface was sterilized with iodine for preparation. To reduce the number of animals used, the back of the rat was further divided into left and right parts. One drug was injected first at the right part. After a washout period of one week, another drug was injected at the left part.
0.6 mL of drug was injected subcutaneously under the dorsal surface of the thoracolumbar region of the rat using a 30-gauge needle attached to a syringe (Becton Drive, Franklin Lakes, USA). The subcutaneous injection would result in a circular elevation (i.e., a wheal) of the skin, about 2 cm in diameter. The elevation was marked with ink within 1 minute after injection.
CTMR refers to the reflex movement of the skin of the back caused by twitching of the lateral thoracispinal muscle in response to local dorsal cutaneous stimulation. Essentially, a von Frey filament (No.15; Somedic Sales AB, Sweden) to which a cut end of an 18-gauge needle was affixed was used to produce a standard nociceptive stimulus (strength: 19 g). Six pinpricks (at a frequency of 0.5-1 Hz) were applied to a single marked wheal during each test. […] For example, absence of any response to all of the 6 pinpricks was defined as a complete nociceptive block (i.e., 100% MPE).
The difference resided in that subcutaneous injections of ED25, ED50 and ED75 of the drugs were performed based on the method described in the section “A. Drug injection” of this example, and evaluation of the infiltrative cutaneous anesthetic effect was performed based on the method described in the section “B. Neurobehavioral evaluation” of this example.

[3] = read-out: Motor function ED50 (95% CI)
[4] = read-out: Nociceptive reaction ED50 (95% CI)
[5] = read-out: Proprioception ED50 (95% CI)
[6] = rats, 2ED50 when administered independently, ED50 of each drug when co-administered, mean ± SEM
[7] = intrathecal dose of ED75, injection to complete recovery, rats
[8] = intrathecal dose of ED75, rats, mean±SEM
[9] = intrathecal, rats, hydrochloride
[10] = dosage of 6.7 mg/kg, sciatic nerve notch injection, rats
[11] = infiltrative cutaneous anesthesia, rats, 2ED50 when administered independently, ED50 for co-administration, mean ± SEM, hydrochloride
[12] = infiltrative cutaneous anesthesia, subcutaneous injection, rats
[13] = subcutaneous dose of ED75, rats, mean±SEM

COc1ccc2c(c1)[C@@]13CCCC[C@H]1[C@@H](C2)NCC3.Cl [3-methoxymorphinan hydrochloride]
sciatic nerve blocking effect on nociceptive reaction compared with motor function (sciatic nerve; ED50 basis, p<0.01, rats): more potent sciatic nerve blocking effect on nociceptive reaction than on motor function
ED50 (sciatic nerve; read-out: Mean ED50): 6.68 mg/kg
ED50 (sciatic nerve; [3]): 7.4 mg/kg
ED50 (sciatic nerve; [4]): 5.89 mg/kg
ED50 (sciatic nerve; [5]): 6.76 mg/kg
effect of co-administration with lidocaine hydrochloride on sciatic nerve blockades (sciatic nerve; rats, ED50 of each drug): additive effect
AUC of time-% PE curve, sciatic nerve blockade of motor function (sciatic nerve; [6]): 4559 ± 584
AUC of time-% PE curve, sciatic nerve blockade of nociceptive reaction (sciatic nerve; [6]): 8026 ± 1437
AUC of time-% PE curve, sciatic nerve blockade of proprioception (sciatic nerve; [6]): 5191 ± 652
duration of sciatic nerve blockade compared with lidocaine hydrochloride (sciatic nerve; same effective doses (ED25, ED50 or ED75), rats): longer reaction duration
% MPE of spinal blockades of motor function, proprioception and nociceptive reaction (range over the three functions) (Male Sprague-Dawley rats [1]; intrathecal dose of ED75, rats): 66-79 % MPE
duration of spinal blockades of motor function, proprioception and nociceptive reaction (range over the three functions) (Male Sprague-Dawley rats [1]; intrathecal dose of ED75, rats): 28 to 35 min
effect of co-administration with bupivacaine hydrochloride on spinal blockade (Male Sprague-Dawley rats [1]; intrathecal, rats, ED50 of each drug): additive effect
AUC of time-% PE curve, spinal blockade of motor function (Male Sprague-Dawley rats [1]; intrathecal, rats): 1265 ± 232
AUC of time-% PE curve, spinal blockade of nociceptive reaction (Male Sprague-Dawley rats [1]; intrathecal, rats): 2081 ± 227
AUC of time-% PE curve, spinal blockade of proprioception (Male Sprague-Dawley rats [1]; intrathecal, rats): 1917 ± 254
Motor function ED50 (95% CI) (Male Sprague-Dawley rats [1]; rats): 0.45 (0.43–0.47) mg
Nociceptive reaction ED50 (95% CI) (Male Sprague-Dawley rats [1]; rats): 0.39 (0.37–0.42) mg
Proprioception ED50 (95% CI) (Male Sprague-Dawley rats [1]; rats): 0.40 (0.38–0.43) mg
Mean value ED25 (Male Sprague-Dawley rats [1]; intrathecal, rats): 0.33 mg
Mean value ED50 (Male Sprague-Dawley rats [1]; intrathecal, rats): 0.41 mg
Mean value ED75 (Male Sprague-Dawley rats [1]; intrathecal, rats): 0.53 mg

CCCCN1CCCCC1C(=O)Nc1c(C)cccc1C (centres unmarked) [Bupivacaine hydrochloride, reference compound]
duration of spinal blockade of motor function (Male Sprague-Dawley rats [1]; [7]): about 25±3 minutes
duration of spinal blockade of nociceptive reaction (Male Sprague-Dawley rats [1]; [7]): ~63 ± 7 min
duration of spinal blockade of proprioception (Male Sprague-Dawley rats [1]; [7]): ~32 ± 4 min
% MPE of spinal blockade of motor function (Male Sprague-Dawley rats [1]; [8]): about 71±3 % MPE
% MPE of spinal blockade of nociceptive reaction (Male Sprague-Dawley rats [1]; [8]): ~81±3 % MPE
% MPE of spinal blockade of proprioception (Male Sprague-Dawley rats [1]; [8]): ~72±4 % MPE
AUC of time-% PE curve, spinal blockade of motor function (Male Sprague-Dawley rats [1]; [9]): 1292 ± 113 and 1238 ± 147 and 1383 ± 131
AUC of time-% PE curve, spinal blockade of nociceptive reaction (Male Sprague-Dawley rats [1]; [9]): 4378 ± 184 and 4512 ± 229 and 4410 ± 225
AUC of time-% PE curve, spinal blockade of proprioception (Male Sprague-Dawley rats [1]; [9]): 2597 ± 245 and 2638 ± 308 and 2774 ± 299
Motor function ED50 (95% CI) (Male Sprague-Dawley rats [1]; rats): 0.12 (0.11–0.12) mg
Nociceptive reaction ED50 (95% CI) (Male Sprague-Dawley rats [1]; rats): 0.09 (0.08–0.09) mg
Proprioception ED50 (95% CI) (Male Sprague-Dawley rats [1]; rats): 0.10 (0.10–0.11) mg
Mean value ED25 (Male Sprague-Dawley rats [1]; intrathecal, rats): 0.08 mg
Mean value ED50 (Male Sprague-Dawley rats [1]; intrathecal, rats): 0.11 mg
Mean value ED75 (Male Sprague-Dawley rats [1]; intrathecal, rats): 0.14 mg

CCN(CC)CC(=O)Nc1c(C)cccc1C [Lidocaine hydrochloride, reference compound]
ED50 (sciatic nerve; [3]): 2.67 mg/kg
ED50 (sciatic nerve; [4]): 2.35 mg/kg
ED50 (sciatic nerve; [5]): 2.57 mg/kg
% MPE of sciatic nerve blockade of motor function (sciatic nerve; [10]): 100 % MPE
% MPE of sciatic nerve blockade of nociceptive reaction (sciatic nerve; [10]): 100 % MPE
% MPE of sciatic nerve blockade of proprioception (sciatic nerve; [10]): 100 % MPE
duration of sciatic nerve blockade of motor function (sciatic nerve; [10]): about 63±6 minutes
duration of sciatic nerve blockade of nociceptive reaction (sciatic nerve; [10]): ~83 ± 6 min
duration of sciatic nerve blockade of proprioception (sciatic nerve; [10]): ~73 ± 4 min
ED50 (Male Sprague-Dawley rats [2]; Rattus norvegicus, sc, infiltrative cutaneous anesthesia, subcutaneous injection, rats, read-out: ED50 (95% CI)): 7 mg/kg
% MPE (Male Sprague-Dawley rats [2]; [11]): 90 ± 5 % MPE and 88 ± 6 % MPE
Duration (Male Sprague-Dawley rats [2]; [11]): 51 ± 3 min and 52 ± 4 min
ED25 (Male Sprague-Dawley rats [2]; [12]): 5.31 mg/kg
ED75 (Male Sprague-Dawley rats [2]; [12]): 9.24 mg/kg
% MPE of cutaneous nociceptive block (Male Sprague-Dawley rats [2]; [13]): 72±7 % MPE
duration of cutaneous nociceptive block (Male Sprague-Dawley rats [2]; [13]): ~33 ± 4 min
